Measured values: patent US12065436B2, “Cardiac sarcomere inhibitors” (Cytokinetics, Inc., priority 2018, dated 2024)

Target: bovine cardiac myofibrils (full-length cardiac myosin ATPase in the native sarcomere) (Bos taurus (Bovine), UniProt Q9BE39)
Assay: Skinned bovine cardiac myofibril ATPase assay (PK/LDH-coupled)
Type: biochemical
Conditions: Ca2+ activating to 75% of maximal rate; for CDMF75 IC15: concentration giving 15% inhibition; for IC50: read-out: CDMF75 IC50
How it was run: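 Triton-skinned bovine left-ventricle myofibrils (1 mg/mL) in PM 12 buffer (12 mM PIPES, 2 mM MgCl2, pH 6.8) with 50 μM ATP, 0.6 mM EGTA and CaCl2 set for 50% or 75% activation. Steady-state ATPase inhibition followed by PK/LDH-coupled NADH oxidation at 340 nm.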

Chain of bovine cardiac myofibrils (full-length cardiac myosin ATPase in the native sarcomere) (Q9BE39 whole entry): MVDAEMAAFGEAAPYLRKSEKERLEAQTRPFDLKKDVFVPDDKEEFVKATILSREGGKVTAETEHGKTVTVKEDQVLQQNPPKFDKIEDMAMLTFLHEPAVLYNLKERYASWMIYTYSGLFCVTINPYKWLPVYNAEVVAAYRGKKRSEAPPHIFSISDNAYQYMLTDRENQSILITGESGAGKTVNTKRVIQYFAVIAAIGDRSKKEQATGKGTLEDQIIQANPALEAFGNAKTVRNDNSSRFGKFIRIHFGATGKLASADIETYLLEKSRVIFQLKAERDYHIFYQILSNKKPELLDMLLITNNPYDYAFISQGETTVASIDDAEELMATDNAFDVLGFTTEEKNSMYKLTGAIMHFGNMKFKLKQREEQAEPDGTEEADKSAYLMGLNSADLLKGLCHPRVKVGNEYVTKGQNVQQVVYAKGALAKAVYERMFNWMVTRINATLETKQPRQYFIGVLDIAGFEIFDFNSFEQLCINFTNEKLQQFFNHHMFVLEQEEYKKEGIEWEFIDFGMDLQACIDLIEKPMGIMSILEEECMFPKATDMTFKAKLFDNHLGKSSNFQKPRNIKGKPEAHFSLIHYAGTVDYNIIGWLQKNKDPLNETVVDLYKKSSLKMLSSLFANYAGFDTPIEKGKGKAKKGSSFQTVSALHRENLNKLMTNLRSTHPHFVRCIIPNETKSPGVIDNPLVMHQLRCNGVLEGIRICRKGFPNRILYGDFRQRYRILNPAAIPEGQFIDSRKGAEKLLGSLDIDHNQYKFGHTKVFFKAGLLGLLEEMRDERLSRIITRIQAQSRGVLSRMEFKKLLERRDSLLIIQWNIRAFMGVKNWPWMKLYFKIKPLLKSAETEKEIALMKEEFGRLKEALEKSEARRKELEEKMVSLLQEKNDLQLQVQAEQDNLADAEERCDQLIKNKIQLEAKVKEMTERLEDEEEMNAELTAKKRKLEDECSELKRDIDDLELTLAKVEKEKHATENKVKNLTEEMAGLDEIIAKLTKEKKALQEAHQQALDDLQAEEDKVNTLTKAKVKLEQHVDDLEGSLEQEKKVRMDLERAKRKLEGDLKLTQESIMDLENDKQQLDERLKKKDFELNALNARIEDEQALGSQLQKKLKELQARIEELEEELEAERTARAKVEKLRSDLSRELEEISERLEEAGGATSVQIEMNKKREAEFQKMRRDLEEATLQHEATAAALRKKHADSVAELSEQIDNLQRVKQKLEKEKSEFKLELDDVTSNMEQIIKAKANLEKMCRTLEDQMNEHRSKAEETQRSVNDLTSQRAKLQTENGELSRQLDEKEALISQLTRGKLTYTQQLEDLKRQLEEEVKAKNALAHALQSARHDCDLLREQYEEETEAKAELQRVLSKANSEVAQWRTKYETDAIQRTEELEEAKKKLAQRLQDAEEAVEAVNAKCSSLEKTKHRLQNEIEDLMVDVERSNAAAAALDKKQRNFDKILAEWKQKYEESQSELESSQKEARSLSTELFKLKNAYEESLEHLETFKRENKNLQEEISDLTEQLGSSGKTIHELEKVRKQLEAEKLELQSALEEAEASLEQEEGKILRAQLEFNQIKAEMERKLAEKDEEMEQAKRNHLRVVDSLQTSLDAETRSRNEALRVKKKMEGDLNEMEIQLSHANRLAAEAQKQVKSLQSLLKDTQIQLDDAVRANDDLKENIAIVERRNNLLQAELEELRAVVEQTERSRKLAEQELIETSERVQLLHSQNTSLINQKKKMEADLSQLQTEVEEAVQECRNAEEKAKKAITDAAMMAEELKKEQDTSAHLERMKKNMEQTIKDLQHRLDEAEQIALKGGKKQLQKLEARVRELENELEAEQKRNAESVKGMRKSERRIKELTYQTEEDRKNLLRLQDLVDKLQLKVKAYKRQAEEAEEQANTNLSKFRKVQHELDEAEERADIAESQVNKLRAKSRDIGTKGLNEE
Chain of bovine cardiac myofibrils (full-length cardiac myosin ATPase in the native sarcomere) (P85100 whole entry partner): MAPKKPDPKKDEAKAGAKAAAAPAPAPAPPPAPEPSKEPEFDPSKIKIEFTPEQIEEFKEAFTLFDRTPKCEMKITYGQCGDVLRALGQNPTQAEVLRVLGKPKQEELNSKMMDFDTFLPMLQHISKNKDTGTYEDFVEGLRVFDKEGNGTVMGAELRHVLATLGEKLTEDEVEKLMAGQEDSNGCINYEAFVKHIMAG
Chain of bovine cardiac myofibrils (full-length cardiac myosin ATPase in the native sarcomere) (Q3SZE5 whole entry partner): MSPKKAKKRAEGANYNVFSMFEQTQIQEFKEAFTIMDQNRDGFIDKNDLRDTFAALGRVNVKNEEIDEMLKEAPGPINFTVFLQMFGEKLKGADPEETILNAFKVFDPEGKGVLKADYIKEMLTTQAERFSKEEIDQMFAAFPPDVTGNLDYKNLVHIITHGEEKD

SMILES | CDMF75 IC15 [nM] | IC50 [nM]
CCc1nc(-c2ccc3c(c2)OCC3NC(=O)c2ccnn2C)no1 (centres unmarked) [Compound 229, N-(6-(5-ethyl-1,2,4-oxadiazol-3-yl)-2,3-dihydrobenzofuran-3-yl)-1-methyl-1H-pyrazole-5-carboxamide] | 500 | 1400
CCc1nc(-c2ccc3c(c2)OCC3NC(=O)c2cc(C)nn2C)no1 (centres unmarked) [Compound 230, N-(6-(5-ethyl-1,2,4-oxadiazol-3-yl)-2,3-dihydrobenzofuran-3-yl)-1,3-dimethyl-1H-pyrazole-5-carboxamide] | 600 | 1800
CCc1nc(-c2ccc3c(c2)OC[C@H]3NC(=O)c2cc(C)nn2C)no1 [Compound 231, (S)-N-(6-(5-ethyl-1,2,4-oxadiazol-3-yl)-2,3-dihydrobenzofuran-3-yl)-1,3-dimethyl-1H-pyrazole-5-carboxamide] | 300 | 1000
Cc1cc(C(=O)NC2COc3cc(-c4noc(C5CC5)n4)ccc32)n(C)n1 (centres unmarked) [Compound 232, N-(6-(5-cyclopropyl-1,2,4-oxadiazol-3-yl)-2,3-dihydrobenzofuran-3-yl)-1,3-dimethyl-1H-pyrazole-5-carboxamide] | 700 | 2400
Cc1cc(C(=O)N[C@@H]2COc3cc(-c4noc(C5CC5)n4)ccc32)n(C)n1 [Compound 233, (S)-N-(6-(5-cyclopropyl-1,2,4-oxadiazol-3-yl)-2,3-dihydrobenzofuran-3-yl)-1,3-dimethyl-1H-pyrazole-5-carboxamide] | 300 | 1100
Cn1nnc(C(=O)NC2COc3cc(-c4noc(C5CC5)n4)ccc32)n1 (centres unmarked) [Compound 234, N-(6-(5-cyclopropyl-1,2,4-oxadiazol-3-yl)-2,3-dihydrobenzofuran-3-yl)-2-methyl-2H-tetrazole-5-carboxamide] | 1900 | 8000
Cn1nnc(C(=O)N[C@@H]2COc3cc(-c4noc(C5CC5)n4)ccc32)n1 [Compound 235, (S)-N-(6-(5-cyclopropyl-1,2,4-oxadiazol-3-yl)-2,3-dihydrobenzofuran-3-yl)-2-methyl-2H-tetrazole-5-carboxamide] | 1200 | 4800
Cn1cc(C(=O)NC2COc3cc(-c4noc(C5CC5)n4)ccc32)cn1 (centres unmarked) [Compound 237, N-(6-(5-cyclopropyl-1,2,4-oxadiazol-3-yl)-2,3-dihydrobenzofuran-3-yl)-1-methyl-1H-pyrazole-4-carboxamide] | 1100 | 3600
CCc1nc(-c2ccc3c(c2)OCC3NC(=O)c2cnn(C)c2)no1 (centres unmarked) [Compound 239, N-(6-(5-ethyl-1,2,4-oxadiazol-3-yl)-2,3-dihydrobenzofuran-3-yl)-1-methyl-1H-pyrazole-4-carboxamide] | 700 | 2100
CCc1nc(-c2ccc3c(c2)CC[C@H]3NC(=O)c2ccnn2C)no1 [Compound 240, (R)-N-(5-(5-ethyl-1,2,4-oxadiazol-3-yl)-2,3-dihydro-1H-inden-1-yl)-1-methyl-1H-pyrazole-5-carboxamide] | 300 | 800
Cn1nccc1C(=O)N[C@@H]1CCc2cc(-c3noc(C4CC4)n3)ccc21 [Compound 241, (R)-N-(5-(5-cyclopropyl-1,2,4-oxadiazol-3-yl)-2,3-dihydro-1H-inden-1-yl)-1-methyl-1H-pyrazole-5-carboxamide] | 200 | 800
[2H]C([2H])([2H])c1nc(-c2ccc3c(c2)CC[C@H]3NC(=O)c2ccnn2C)no1 [Compound 242, (R)-1-methyl-N-(5-(5-(methyl-d3)-1,2,4-oxadiazol-3-yl)-2,3-dihydro-1H-inden-1-yl)-1H-pyrazole-5-carboxamide] | 500 | 1500
[2H]C([2H])([2H])c1nc(-c2ccc3c(c2)CC[C@H]3NC(=O)c2nnn(C)n2)no1 [Compound 243, (R)-2-methyl-N-(5-(5-(methyl-d3)-1,2,4-oxadiazol-3-yl)-2,3-dihydro-1H-inden-1-yl)-2H-tetrazole-5-carboxamide] | 1300 | 4700
[2H]C([2H])([2H])c1nc(-c2ccc3c(c2)CC[C@H]3NC(=O)c2cnn(C)c2)no1 [Compound 244, (R)-1-methyl-N-(5-(5-(methyl-d3)-1,2,4-oxadiazol-3-yl)-2,3-dihydro-1H-inden-1-yl)-1H-pyrazole-4-carboxamide] | 1600 | 5400
[2H]C([2H])([2H])c1nc(-c2ccc3c(c2)CC[C@H]3NC(=O)c2ccnc(C)c2)no1 [Compound 245, (R)-2-methyl-N-(5-(5-(methyl-d3)-1,2,4-oxadiazol-3-yl)-2,3-dihydro-1H-inden-1-yl)isonicotinamide] | 1000 | 3400
[2H]C([2H])([2H])c1nc(-c2ccc3c(c2)CC[C@H]3NC(=O)c2cn(C)nc2C)no1 [Compound 246, (R)-1,3-dimethyl-N-(5-(5-(methyl-d3)-1,2,4-oxadiazol-3-yl)-2,3-dihydro-1H-inden-1-yl)-1H-pyrazole-4-carboxamide] | 1100 | 3500
[2H]C([2H])([2H])c1nc(-c2ccc3c(c2)CC[C@H]3NC(=O)c2cc(C)nn2C)no1 [Compound 247, (R)-1,3-dimethyl-N-(5-(5-(methyl-d3)-1,2,4-oxadiazol-3-yl)-2,3-dihydro-1H-inden-1-yl)-1H-pyrazole-5-carboxamide] | 800 | 2600
[2H]C([2H])([2H])c1nc(-c2ccc3c(c2)CC[C@H]3NC(=O)c2oncc2C)no1 [Compound 248, (R)-4-methyl-N-(5-(5-(methyl-d3)-1,2,4-oxadiazol-3-yl)-2,3-dihydro-1H-inden-1-yl)isoxazole-5-carboxamide] | 400 | 1500

Continued, values first:

CDMF75 IC15 [nM] | IC50 [nM] | SMILES
1400 | 5200 | [2H]C([2H])([2H])c1nc(-c2ccc3c(c2)CC[C@H]3NC(=O)c2cnc(C)o2)no1 [Compound 249, (R)-2-methyl-N-(5-(5-(methyl-d3)-1,2,4-oxadiazol-3-yl)-2,3-dihydro-1H-inden-1-yl)oxazole-5-carboxamide]
1000 | 3600 | [2H]C([2H])([2H])c1nc(-c2ccc3c(c2)CC[C@H]3NC(=O)c2cnn(C)c2C)no1 [Compound 250, (R)-1,5-dimethyl-N-(5-(5-(methyl-d3)-1,2,4-oxadiazol-3-yl)-2,3-dihydro-1H-inden-1-yl)-1H-pyrazole-4-carboxamide]
500 | 1500 | [2H]C([2H])([2H])c1nc(-c2ccc3c(c2)CC[C@H]3NC(=O)c2ocnc2C)no1 [Compound 251, (R)-4-methyl-N-(5-(5-(methyl-d3)-1,2,4-oxadiazol-3-yl)-2,3-dihydro-1H-inden-1-yl)oxazole-5-carboxamide]
400 | 1500 | Cc1cc(-c2ccc3c(c2)CC[C@H]3NC(=O)c2nnn(C)n2)no1 [Compound 252, (R)-2-methyl-N-(5-(5-methylisoxazol-3-yl)-2,3-dihydro-1H-inden-1-yl)-2H-tetrazole-5-carboxamide]
1300 | 4900 | CCc1noc(-c2ccc3c(c2)CC[C@H]3NC(=O)c2cnn(C)c2)n1 [Compound 254, (R)-N-(5-(3-ethyl-1,2,4-oxadiazol-5-yl)-2,3-dihydro-1H-inden-1-yl)-1-methyl-1H-pyrazole-4-carboxamide]
800 | 2600 | CCc1noc(-c2ccc3c(c2)CC[C@H]3NC(=O)c2cnn(C)c2C)n1 [Compound 255, (R)-N-(5-(3-ethyl-1,2,4-oxadiazol-5-yl)-2,3-dihydro-1H-inden-1-yl)-1,5-dimethyl-1H-pyrazole-4-carboxamide]
500 | 1700 | CCc1noc(-c2ccc3c(c2)CC[C@H]3NC(=O)c2nnn(C)n2)n1 [Compound 256, (R)-N-(5-(3-ethyl-1,2,4-oxadiazol-5-yl)-2,3-dihydro-1H-inden-1-yl)-2-methyl-2H-tetrazole-5-carboxamide]
400 | 1000 | CCc1noc(-c2ccc3c(c2)CC[C@H]3NC(=O)c2ccnn2C)n1 [Compound 257, (R)-N-(5-(3-ethyl-1,2,4-oxadiazol-5-yl)-2,3-dihydro-1H-inden-1-yl)-1-methyl-1H-pyrazole-5-carboxamide]
1500 | 5700 | Cn1cc(C(=O)N[C@@H]2CCc3cc(-c4nc(C5CC5)no4)ccc32)cn1 [Compound 258, (R)-N-(5-(3-cyclopropyl-1,2,4-oxadiazol-5-yl)-2,3-dihydro-1H-inden-1-yl)-1-methyl-1H-pyrazole-4-carboxamide]
800 | 3000 | Cc1c(C(=O)N[C@@H]2CCc3cc(-c4nc(C5CC5)no4)ccc32)cnn1C [Compound 259, (R)-N-(5-(3-cyclopropyl-1,2,4-oxadiazol-5-yl)-2,3-dihydro-1H-inden-1-yl)-1,5-dimethyl-1H-pyrazole-4-carboxamide]
400 | 1400 | Cn1nnc(C(=O)N[C@@H]2CCc3cc(-c4nc(C5CC5)no4)ccc32)n1 [Compound 260, (R)-N-(5-(3-cyclopropyl-1,2,4-oxadiazol-5-yl)-2,3-dihydro-1H-inden-1-yl)-2-methyl-2H-tetrazole-5-carboxamide]
400 | 1200 | Cn1nccc1C(=O)N[C@@H]1CCc2cc(-c3nc(C4CC4)no3)ccc21 [Compound 261, (R)—N-(5-(3-cyclopropyl-1,2,4-oxadiazol-5-yl)-2,3-dihydro-1H-inden-1-yl)-1-methyl-1H-pyrazole-5-carboxamide]
700 | 1900 | [2H]C([2H])([2H])c1nc(-c2ccc3c(c2)OC[C@H]3NC(=O)c2ccnn2C)no1 [Compound 262, (S)-1-methyl-N-(6-(5-(methyl-d3)-1,2,4-oxadiazol-3-yl)-2,3-dihydrobenzofuran-3-yl)-1H-pyrazole-5-carboxamide]
